Source: PMC7594867 (Journal of Enzyme Inhibition and Medicinal Chemistry, 2020)
Read-outs that look alike come from different tables or passages of the source.

Key:
MCF-7 = test: MTT cytotoxicity assay, MCF-7; type: cell-based; details: for IC50: Homo sapiens, MCF7, 72 h, read-out: IC50 ± SD, MCF-7; for Selectivity index, MCF-7: IC50 MRC-5 / IC50 MCF-7
A2780 = test: MTT cytotoxicity assay, A2780; type: cell-based; details: for IC50: Homo sapiens, A2780, 72 h, read-out: IC50 ± SD, A2780; for Selectivity index, A2780: IC50 MRC-5 / IC50 A2780
HT29 = test: MTT cytotoxicity assay, HT29; type: cell-based; details: for IC50: Homo sapiens, HT-29, 72 h, read-out: IC50 ± SD, HT29; for Selectivity index, HT29: IC50 MRC-5 / IC50 HT29
[1] = tested on: normal human foetal lung fibroblast (MRC-5); test: MTT cytotoxicity assay, normal MRC-5 cells; type: cell-based; details: MRC5, 72 h, read-out: IC50 (µM ± SD) MRC-5
[2] = tested on: MCF-7, A2780, and HT29 cell lines; test: MTT cytotoxicity assay, three cancer cell lines taken together; type: cell-based
MCF-7 cells [3] = test: Annexin V-FITC/PI staining apoptosis assay; type: cell-based; details: MCF-7, 24 h, control 0%
MCF-7 cells [4] = test: Cell cycle analysis; type: cell-based; details: for effect on cell cycle: MCF-7, 24 h, 1, 5, 10 µM; for number of cells in the G1 cell-cycle phase: MCF-7, 24 h, highest increase, concentration not given
CDK-2 = CDK-2 (Homo sapiens, UniProt P24941); test: CDK-2 inhibition, ADP-Glo kinase assay; type: biochemical
[5] = 72 h, read-out: IC50, range over the three cancer cell lines

| IC50 (CDK-2) [nM] | Structure (SMILES) | IC50 (MCF-7) [nM] | Selectivity index, MCF-7 (MCF-7) | IC50 (A2780) [nM] | Selectivity index, A2780 (A2780) | IC50 (HT29) [nM] | Selectivity index, HT29 (HT29) | IC50 [1] [µM] | IC50 [2, 5] [nM] | Selectivity index, range over the three cell lines ([2]; IC50 MRC-5 / IC50 cancer cell line) | IC50 ([2]; read-out: Average IC50) [nM] | apoptotic events (MCF-7 cells [3]; 1 µM) [%] | effect on cell cycle (MCF-7 cells [4]) | number of cells in the G1 cell-cycle phase (MCF-7 cells [4]) [%] | apoptotic events (MCF-7 cells [3]; 5 µM) [%] | apoptotic events (MCF-7 cells [3]; 10 µM) [%] |
| --- | --- | --- | --- | --- | --- | --- | --- | --- | --- | --- | --- | --- | --- | --- | --- | --- |
|  | CCCCCCNC(=O)Nc1c(C#N)c2n(c1C(=O)Nc1ccccc1)CCC2 [Compound 16a, 7-Cyano-6-(3-hexylureido)-N-phenyl-2,3-dihydro-1H-pyrrolizine-5-carboxamide] | 590 ± 10 | 20.10 | 350 ± 180 | 33.89 | 850 ± 70 | 13.95 | 11.9 ± 0.87 | 350 to 850 | 13.95–33.89 | 600 |  |  |  |  |  |
|  | CCCCCCNC(=O)Nc1c(C#N)c2n(c1C(=O)Nc1ccc(C)cc1)CCC2 [Compound 16b, 7-Cyano-6-(3-hexylureido)-N-(p-tolyl)-2,3-dihydro-1H-pyrrolizine-5-carboxamide] | 1170 ± 310 | 2.26 | 230 ± 40 | 11.52 | 1560 ± 140 | 1.70 | 2.65 ± 0.29 |  |  | 990 |  |  |  |  |  |
|  | CCCCCCNC(=O)Nc1c(C#N)c2n(c1C(=O)Nc1ccc(Cl)cc1)CCC2 [Compound 16c, N-(4-Chlorophenyl)-7-cyano-6-(3-hexylureido)-2,3-dihydro-1H-pyrrolizine-5-carboxamide] | 34100 ± 4610 | 0.02 | 530 ± 100 | 1.42 | 3100 ± 100 | 0.24 | 0.75 ± 0.14 |  |  | 12600 |  |  |  |  |  |
|  | COc1ccc(NC(=O)Nc2c(C#N)c3n(c2C(=O)Nc2ccccc2)CCC3)cc1 [Compound 17a, 7-Cyano-6-(3-(4-methoxyphenyl)ureido)-N-phenyl-2,3-dihydro-1H-pyrrolizine-5-carboxamide] | 900 ± 110 | 2.56 | 440 ± 30 | 5.23 | 5290 ± 1510 | 0.43 | 2.3 ± 0.15 |  |  | 2210 |  |  |  |  |  |
|  | COc1ccc(NC(=O)Nc2c(C#N)c3n(c2C(=O)Nc2ccc(C)cc2)CCC3)cc1 [Compound 17b, 7-Cyano-6-(3-(4-methoxyphenyl)ureido)-N-(p-tolyl)-2,3-dihydro-1H-pyrrolizine-5-carboxamide] | 2850 ± 310 | 2.18 | 420 ± 70 | 14.76 | 1440 ± 170 | 4.31 | 6.2 ± 0.88 |  |  | 1570 |  |  |  |  |  |
|  | COc1ccc(NC(=O)Nc2c(C#N)c3n(c2C(=O)Nc2ccc(Cl)cc2)CCC3)cc1 [Compound 17c, N-(4-Chlorophenyl)-7-cyano-6-(3-(4-methoxyphenyl)ureido)-2,3-dihydro-1H-pyrrolizine-5-carboxamide] | 3360 ± 830 | 1.13 | 540 ± 20 | 7.04 | 420 ± 160 | 9.05 | 3.8 ± 0.25 |  |  | 1440 |  |  |  |  |  |
|  | N#Cc1c(NC(=O)Nc2ccc(F)cc2)c(C(=O)Nc2ccccc2)n2c1CCC2 [Compound 18a, 7-Cyano-6-(3-(4-fluorophenyl)ureido)-N-phenyl-2,3-dihydro-1H-pyrrolizine-5-carboxamide] | 10760 ± 70 | 0.99 | 10600 ± 2830 | 1.01 | 9130 ± 850 | 1.17 | 10.7 ± 0.61 |  |  | 10200 |  |  |  |  |  |
| 115 ± 3.2 | Cc1ccc(NC(=O)c2c(NC(=O)Nc3ccc(F)cc3)c(C#N)c3n2CCC3)cc1 [Compound 18b, 7-Cyano-6-(3-(4-fluorophenyl)ureido)-N-(p-tolyl)-2,3-dihydro-1H-pyrrolizine-5-carboxamide] | 190 ± 20 | 7.68 | 970 ± 140 | 1.51 | 9710 ± 2250 | 0.15 | 1.46 ± 0.42 |  |  | 3620 | 20 | G1 -S cell cycle arrest | 53 |  |  |
|  | N#Cc1c(NC(=O)Nc2ccc(F)cc2)c(C(=O)Nc2ccc(Cl)cc2)n2c1CCC2 [Compound 18c, N-(4-Chlorophenyl)-7-cyano-6-(3-(4-fluorophenyl)ureido)-2,3-dihydro-1H-pyrrolizine-5-carboxamide] | 290 ± 190 | 0.34 | 210 ± 100 | 0.48 | 1380 ± 20 | 0.07 | 0.1 ± 0.01 |  |  | 630 |  |  |  |  |  |
| 25.5 ± 1.7 | N#Cc1c(NC(=O)Nc2cccc3ccccc23)c(C(=O)Nc2ccccc2)n2c1CCC2 [Compound 19a, 7-Cyano-6-(3-(naphthalen-1-yl)ureido)-N-phenyl-2,3-dihydro-1H-pyrrolizine-5-carboxamide] | 400 ± 420 | 6.68 | 320 ± 170 | 8.34 | 200 ± 10 | 13.35 | 2.67 ± 0.37 |  |  | 310 |  | G1 -S cell cycle arrest | 70 |  |  |
|  | Cc1ccc(NC(=O)c2c(NC(=O)Nc3cccc4ccccc34)c(C#N)c3n2CCC3)cc1 [Compound 19b, 7-Cyano-6-(3-(naphthalen-1-yl)ureido)-N-(p-tolyl)-2,3-dihydro-1H-pyrrolizine-5-carboxamide] | 440 ± 90 | 3.50 | 5390 ± 1130 | 0.29 | 680 ± 140 | 2.26 | 1.54 ± 0.2 |  |  | 2170 |  |  |  |  |  |
|  | N#Cc1c(NC(=O)Nc2cccc3ccccc23)c(C(=O)Nc2ccc(Cl)cc2)n2c1CCC2 [Compound 19c, N-(4-Chlorophenyl)-7-cyano-6-(3-(naphthalen-1-yl)ureido)-2,3-dihydro-1H-pyrrolizine-5-carboxamide] | 1270 ± 10 | 2.11 | 3070 ± 1500 | 0.87 | 2560 ± 700 | 1.05 | 2.68 ± 0.37 |  |  | 2300 |  |  |  |  |  |
| 77.9 ± 2.2 | N#Cc1c(NC(=S)Nc2cccc3ccccc23)c(C(=O)Nc2ccccc2)n2c1CCC2 [Compound 20a, 7-Cyano-6-(3-(naphthalen-1-yl)thioureido)-N-phenyl-2,3-dihydro-1H-pyrrolizine-5-carboxamide] | 420 ± 150 | 1.02 | 160 ± 10 | 2.69 | 720 ± 120 | 0.60 | 0.43 ± 0.13 |  |  | 430 | 38 | G1 -S cell cycle arrest | 57 | 39 | 47 |
|  | Cc1ccc(NC(=O)c2c(NC(=S)Nc3cccc4ccccc34)c(C#N)c3n2CCC3)cc1 [Compound 20b, 7-Cyano-6-(3-(naphthalen-1-yl)thioureido)-N-(p-tolyl)-2,3-dihydro-1H-pyrrolizine-5-carboxamide] | 4970 ± 420 | 0.40 | 2040 ± 950 | 0.98 | 3830 ± 580 | 0.52 | 2 ± 0.75 |  |  | 3610 |  |  |  |  |  |
|  | N#Cc1c(NC(=S)Nc2cccc3ccccc23)c(C(=O)Nc2ccc(Cl)cc2)n2c1CCC2 [Compound 20c, N-(4-chlorophenyl)-7-cyano-6-(3-(naphthalen-1-yl)thioureido)-2,3-dihydro-1H-pyrrolizine-5-carboxamide] | 1760 ± 950 | 1.66 | 2810 ± 980 | 1.04 | 3670 ± 1650 | 0.80 | 2.92 ± 0.6 |  |  | 2750 |  |  |  |  |  |
|  | CS(=O)(=O)CCNCc1ccc(-c2ccc3ncnc(Nc4ccc(OCc5cccc(F)c5)c(Cl)c4)c3c2)o1 [Lapatinib, lapatinib, reference compound] | 6770 ± 1160 | 1.00 | 10500 ± 760 | 0.64 | 12500 ± 1270 | 0.54 | 6.74 ± 1.22 | 6770 to 12500 |  | 9920 |  |  |  |  |  |
